System: MDA-MB-231 cells
Assay: Orthotopic breast cancer xenograft
Format: in vivo, nude mice
Description: Orthotopic Human Breast Cancer Models. 4-week-old female athymic nude mice (Charles River Laboratories) were anesthetized by intraperitoneal injection of ketamine (80 mg/kg) and xylazine (10 mg/kg),according to the protocol approved by the University of Utah Institutional Animal Care and Use Committee (IACUC). Then the thoracic skin was sterilized with iodine and alcohol swabs.
MDA-MB-231 were trypsinized and resuspended in 2.5% CMHA-S and 3% gelatin-DTPH (v:v=1:1). Then, one volume of 4% PEGDA solution was added to four volumes of the cell suspension, and the resulting suspension was mixed gently by vortexing. The final cell concentration was 5×10^7 cells/ml. When the cell suspension was becoming viscous (ca. 3-5 min at 20° C.), 200 uL of gel was injected subcutaneously into the fourth mammary fat pad of each mouse, using a total of six mice per group.
The assessment of chemotherapy on breast cancer. The mice were randomly divided into 4 groups, including control (physiological saline), paclitaxel, LPA antagonist (19b), and paclitaxel followed by 19b. Six mice for each cell line were necessary to get statistically significant results according to literature. The control group received physiological saline i.p. injection twice per week starting at two weeks after the cell transplantation and ending at two weeks after the treatment. The treatment groups received i.p. administration of paclitaxel (10 mg/kg/day) or 19b (10 mg/kg/day) twice per week with the same period of control group. One additional group included 2 dose of paclitaxel followed by 2 dose of 19b with the same period of control group. The treatment was received […] twice per week for 2 weeks total.
The body weight and tumor size were measured twice per week, and general clinical status of the animals was also assessed every day. Perpendicular tumor diameters were measured using a vernier scale caliper and tumor volume estimated using the formula for ellipsoid: […] (mm^3)=[width(mm)^2×length(mm)]/2. Data are expressed as median tumor areas with interquartile ranges.
Animals were euthanized at 4 weeks postinjection or once any signs of broken skin caused by the extension of tumor are found. Tumors were excised with surrounding tissues for histological evaluation. Analysis of variance was used to analyze the statistical difference on tumor growth between different groups. The results are in FIG. 8, where it is shown that the volume of the tumors is the lowest when mice were treated with paclitaxel followed by the administration of 19b.
Xenograft establishment and chemotherapy. […] The tumor sizes were measured and calculated by formula: tumor size (mm^3)=[width (mm)]^2×[length (mm)]/2. […]

Question: What does the source list for `CC(=O)O[C@H]1C(=O)[C@@]2(C)[C@H]([C@H](OC(=O)c3ccccc3)[C@]3(O)C[C@H](OC(=O)[C@H](O)[C@@H](NC(=O)c4ccccc4)c4ccccc4)C(C)=C1C3(C)C)[C@]1(OC(C)=O)CO[C@@H]1C[C@@H]2O` [Taxol, reference compound]?
Answer: tumor blood vessel density / angiogenesis (CD31), single agent (10 mg/kg i.p.): statistically different from the control; tumor size, single agent (10 mg/kg i.p. twice per week for two weeks): reduction of tumor size

— patent US8722649B2, “Alpha-chloro and alpha-bromo phosphonate analogs of lysophosphatidic acid and methods of making and using thereof” (University of Utah Research Foundation, priority 2007, dated 2014)
